How the values were obtained:
[1] = system: Mycobacterium tuberculosis Erdman (autoluminescent); test: FIC90 (Loewe) at 90% inhibition (log2); higher = more antagonistic
Method: (§1)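 DiaMOND equipotent two-drug combination dose responses against autoluminescent M. tuberculosis Erdman in 8 in vitro models. Read-out is OD600, or luminescence for the intracellular and dormancy models, normalised to untreated wells. Hill-fit Einf, AUC25 and GRinf are potency metrics; FIC50 and FIC90 are Loewe-additivity fractional inhibitory concentrations, given as log2 (negative = synergy). Replicates are averaged.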

[2] = system: Mycobacterium tuberculosis Erdman (autoluminescent); test: FIC50 (Loewe) at 50% inhibition (log2); higher = more antagonistic
Method: as §1

[3] = system: Mycobacterium tuberculosis Erdman (autoluminescent); test: Einf, fitted maximum growth inhibition of combination (fraction); higher = stronger maximal inhibition
Method: as §1

[4] = system: Mycobacterium tuberculosis Erdman (autoluminescent); test: AUC25, normalised area under dose response up to IC25 (fraction (0-1)); higher = more potent at low dose
Method: as §1

[5] = system: Mycobacterium tuberculosis Erdman (autoluminescent); test: GRinf, maximum normalised growth rate inhibition (unitless (-1 to 1)); higher = less effect (negative = killing)
Method: as §1

COc1nc2ccc(Br)cc2cc1[C@@H](c1ccccc1)[C@@](O)(CCN(C)C)c1cccc2ccccc12 [bedaquiline] + CO[C@H]1/C=C/O[C@@]2(C)Oc3c(C)c(O)c4c(O)c(c(/C=N/N5CCN(C6CCCC6)CC5)c(O)c4c3C2=O)NC(=O)/C(C)=C\C=C\[C@H](C)[C@H](O)[C@@H](C)[C@@H](O)[C@@H](C)[C@H](OC(C)=O)[C@@H]1C [rifapentine]
Details | AUC25, [4] | Einf, [3] | FIC50, [2] | FIC90, [1] | GRinf, [5]
in vitro model: acidic pH 5.7, time point: constant (~7 days, model-specific) | 0.0995 | 0.969 | 0.322 | 0.172 | -0.693
in vitro model: acidic pH 5.7, time point: terminal (~4-5 doublings, model-specific) | 0.0881 | 0.998 | 0.392 | 0.396 | -0.38
in vitro model: intracellular J774, time point: constant = terminal | – | 0.943 | – | 0.658 | -0.214

Details | AUC25, [4] | Einf, [3] | FIC50, [2] | FIC90, [1] | GRinf, [5]
in vitro model: butyrate, time point: constant (~7 days, model-specific) | 0.0889 | 0.933 | 0.485 | 0.365 | -0.0857
in vitro model: butyrate, time point: terminal (~4-5 doublings, model-specific) | 0.0717 | 0.976 | 0.482 | 0.362 | -0.102
in vitro model: cholesterol 0.05 mM, time point: constant (~7 days, model-specific) | 0.119 | 0.787 | 0.249 | – | -0.201
in vitro model: cholesterol 0.05 mM, time point: terminal (~4-5 doublings, model-specific) | 0.0716 | 0.93 | 0.341 | 0.609 | -0.223
in vitro model: cholesterol-high 0.2 mM, time point: constant (~7 days, model-specific) | 0.0555 | 0.969 | 0.211 | -0.159 | -0.659
in vitro model: cholesterol-high 0.2 mM, time point: terminal (~4-5 doublings, model-specific) | 0.0435 | 1 | 0.367 | 0.259 | -0.615
in vitro model: dormancy (butyrate + nitrate, low O2), time point: constant (~7 days, model-specific) | 0.072 | 0.941 | 0.549 | 1 | 0.16
in vitro model: dormancy (butyrate + nitrate, low O2), time point: terminal (~4-5 doublings, model-specific) | 0.0609 | 0.981 | 0.481 | 0.635 | -0.111
in vitro model: standard 7H9 glycerol, time point: constant = terminal | 0.0637 | 0.949 | 0.236 | 0.112 | -0.0779
in vitro model: valerate, time point: constant (~7 days, model-specific) | 0.0652 | 0.899 | 0.621 | – | -0.0573
in vitro model: valerate, time point: terminal (~4-5 doublings, model-specific) | 0.0336 | 0.955 | 0.678 | 0.464 | -0.0667

COc1nc2ccc(Br)cc2cc1[C@@H](c1ccccc1)[C@@](O)(CCN(C)C)c1cccc2ccccc12 [bedaquiline] + CO[C@H]1/C=C/O[C@@]2(C)Oc3c(C)c(O)c4c(O)c(c(/C=N/N5CCN(C)CC5)c(O)c4c3C2=O)NC(=O)/C(C)=C\C=C\[C@H](C)[C@H](O)[C@@H](C)[C@@H](O)[C@@H](C)[C@H](OC(C)=O)[C@@H]1C [rifampicin]
Details | AUC25, [4] | Einf, [3] | FIC50, [2] | FIC90, [1] | GRinf, [5]
in vitro model: acidic pH 5.7, time point: constant (~7 days, model-specific) | 0.11 | 0.966 | 0.235 | -0.844 | -0.709
in vitro model: acidic pH 5.7, time point: terminal (~4-5 doublings, model-specific) | 0.0796 | 0.995 | 0.0554 | -0.216 | -0.353
in vitro model: intracellular J774, time point: constant = terminal | – | 0.963 | – | 0.648 | -0.255

Details | AUC25, [4] | Einf, [3] | FIC50, [2] | FIC90, [1] | GRinf, [5]
in vitro model: butyrate, time point: constant (~7 days, model-specific) | 0.112 | 0.958 | 0.393 | 0.174 | -0.181
in vitro model: butyrate, time point: terminal (~4-5 doublings, model-specific) | 0.0949 | 0.988 | 0.398 | 0.429 | -0.18
in vitro model: cholesterol 0.05 mM, time point: constant (~7 days, model-specific) | 0.104 | 0.722 | 0.0154 | – | -0.0966
in vitro model: cholesterol 0.05 mM, time point: terminal (~4-5 doublings, model-specific) | 0.0851 | 0.919 | 0.343 | -0.364 | -0.181
in vitro model: cholesterol-high 0.2 mM, time point: constant (~7 days, model-specific) | 0.0637 | 0.982 | 0.194 | -0.00523 | -0.639
in vitro model: cholesterol-high 0.2 mM, time point: terminal (~4-5 doublings, model-specific) | 0.058 | 1 | 0.318 | 0.223 | -0.64
in vitro model: dormancy (butyrate + nitrate, low O2), time point: constant (~7 days, model-specific) | 0.0984 | 0.921 | 0.234 | 0.896 | 0.149
in vitro model: dormancy (butyrate + nitrate, low O2), time point: terminal (~4-5 doublings, model-specific) | 0.0644 | 0.985 | 0.332 | 0.603 | -0.312
in vitro model: standard 7H9 glycerol, time point: constant = terminal | 0.0718 | 0.93 | 0.22 | 0.326 | -0.0375
in vitro model: valerate, time point: constant (~7 days, model-specific) | 0.0727 | 0.914 | 0.714 | – | -0.108
in vitro model: valerate, time point: terminal (~4-5 doublings, model-specific) | 0.0313 | 0.956 | 0.779 | 0.467 | -0.0734

COc1nc2ccc(Br)cc2cc1[C@@H](c1ccccc1)[C@@](O)(CCN(C)C)c1cccc2ccccc12 [bedaquiline] + COc1c(N2C[C@@H]3CCCN[C@@H]3C2)c(F)cc2c(=O)c(C(=O)O)cn(C3CC3)c12 [moxifloxacin]
Details | AUC25, [4] | Einf, [3] | FIC50, [2] | FIC90, [1] | GRinf, [5]
in vitro model: acidic pH 5.7, time point: constant (~7 days, model-specific) | 0.111 | 0.834 | 0.282 | – | -0.5
in vitro model: acidic pH 5.7, time point: terminal (~4-5 doublings, model-specific) | 0.0707 | 0.974 | 0.69 | 0.144 | -0.382
in vitro model: intracellular J774, time point: constant = terminal | – | 0.975 | – | 0.878 | -0.309

Details | AUC25, [4] | Einf, [3] | FIC50, [2] | FIC90, [1] | GRinf, [5]
in vitro model: butyrate, time point: constant (~7 days, model-specific) | 0.092 | 0.966 | 0.816 | 0.849 | -0.175
in vitro model: butyrate, time point: terminal (~4-5 doublings, model-specific) | 0.059 | 0.981 | 0.823 | 0.833 | -0.131
in vitro model: cholesterol 0.05 mM, time point: constant (~7 days, model-specific) | 0.112 | 0.777 | 0.158 | – | -0.237
in vitro model: cholesterol 0.05 mM, time point: terminal (~4-5 doublings, model-specific) | 0.0888 | 0.951 | 0.528 | 0.279 | -0.314
in vitro model: cholesterol-high 0.2 mM, time point: constant (~7 days, model-specific) | 0.0699 | 0.968 | 0.333 | 0.255 | -0.699
in vitro model: cholesterol-high 0.2 mM, time point: terminal (~4-5 doublings, model-specific) | 0.0477 | 1 | 0.532 | 0.271 | -0.644
in vitro model: dormancy (butyrate + nitrate, low O2), time point: constant (~7 days, model-specific) | 0.0664 | 0.921 | 0.814 | 0.437 | 0.176
in vitro model: dormancy (butyrate + nitrate, low O2), time point: terminal (~4-5 doublings, model-specific) | 0.0916 | 0.982 | 0.702 | 1.39 | -0.143
in vitro model: standard 7H9 glycerol, time point: constant = terminal | 0.105 | 0.993 | 0.0351 | 0.704 | -0.102
in vitro model: valerate, time point: constant (~7 days, model-specific) | 0.0901 | 0.911 | 0.469 | – | -0.123
in vitro model: valerate, time point: terminal (~4-5 doublings, model-specific) | 0.0647 | 0.966 | 0.485 | 0.622 | -0.0943

Reference: the supplement of paper PMC8617591
